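Protocol summary: plate cells (96-well), add compound at 5 concentrations, incubate 48 h, interpolate endpoints linearly. GI50 marks 50% less growth.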 Activity calls are given as the source filed them. Cut-off read from the data, not from the text of the source: active = GI50 up to about 1.1 µM and inactive = higher.
How the values were obtained:
Experiment in all cases: inhibition of tumour cell growth, NCI panel, 48 h
HCC 2998 = system: HCC 2998
HCT-15 = system: HCT-15
HOP-62 = system: HOP-62
HT-29 = system: HT-29
IGROV-1 = system: IGROV-1
KM12 = system: KM12
MDA-N = system: MDA-N
NCI-H23 = system: NCI-H23
OVCAR-3 = system: OVCAR-3
OVCAR-4 = system: OVCAR-4
OVCAR-5 = system: OVCAR-5
OVCAR-8 = system: OVCAR-8
RXF 393 = system: RXF 393
SF-268 = system: SF-268
SK-MEL-28 = system: SK-MEL-28
SK-MEL-2 = system: SK-MEL-2
SNB-19 = system: SNB-19
SNB-75 = system: SNB-75
SW-620 = system: SW-620
T47D = system: T47D

Compound	GI50 (HCC 2998)	GI50 (HCT-15)	GI50 (HOP-62)	GI50 (HT-29)	GI50 (IGROV-1)	GI50 (KM12)	GI50 (MDA-N)	GI50 (NCI-H23)	GI50 (OVCAR-3)	GI50 (OVCAR-4)	GI50 (OVCAR-5)	GI50 (OVCAR-8)	GI50 (RXF 393)	GI50 (SF-268)	GI50 (SK-MEL-28)	GI50 (SK-MEL-2)	GI50 (SNB-19)	GI50 (SNB-75)	GI50 (SW-620)	GI50 (T47D)
O=C1CSC(c2cc3cc(Br)ccc3nc2Cl)N1c1ccc(F)c(Cl)c1 (configuration not stated)	> 50 µM (inactive)	33 µM	> 50 µM (inactive)	> 50 µM (inactive)	18.6 µM (inactive)	35.6 µM (inactive)	48.3 µM (inactive)	> 50 µM (inactive)	> 50 µM (inactive)	> 50 µM (inactive)	> 50 µM (inactive)	> 50 µM (inactive)	> 50 µM (inactive)	29.5 µM (inactive)	> 50 µM (inactive)	> 50 µM (inactive)	> 50 µM (inactive)	> 50 µM (inactive)	28.5 µM (inactive)	31.4 µM (inactive)
Nc1ccc(Nc2c3ccccc3nc3ccccc23)cc1	> 10 µM (inactive)	2.84 µM	4.32 µM (inactive)	3.49 µM (inactive)	6.65 µM (inactive)	8.05 µM (inactive)	5.12 µM (inactive)	3.25 µM (inactive)	3.89 µM (inactive)	3.83 µM (inactive)	5.52 µM (inactive)	3.31 µM (inactive)	> 10 µM (inactive)	> 10 µM (inactive)	> 10 µM (inactive)	7.87 µM (inactive)	4.99 µM (inactive)	–	2.26 µM (inactive)	6.49 µM (inactive)
Cn1c(=O)c2c(-c3ccccc3)onc2n(C)c1=O	32.7 µM (inactive)	21.1 µM	17.1 µM (inactive)	25.2 µM (inactive)	20.3 µM (inactive)	34 µM (inactive)	50.2 µM (inactive)	14 µM (inactive)	12.1 µM (inactive)	43.2 µM (inactive)	31 µM (inactive)	24 µM (inactive)	21.3 µM (inactive)	35.2 µM (inactive)	–	15.8 µM (inactive)	40.7 µM (inactive)	24.6 µM (inactive)	26.6 µM (inactive)	23.8 µM (inactive)
CCCC[C@H]1C(=O)O[C@H](C)[C@H](NC(=O)c2cccc(NC=O)c2O)C(=O)O[C@@H](C)[C@@H]1OC(=O)CC(C)C [ANTIMYCIN A3]	10.9 µM (inactive)	< 0.01 µM	8.41 µM (inactive)	1.6 µM (inactive)	3.94 µM (inactive)	0.444 µM (active)	2.43 µM (inactive)	0.294 µM (active)	2.38 µM (inactive)	2.37 µM (inactive)	17 µM (inactive)	2.05 µM (inactive)	6.49 µM (inactive)	6.56 µM (inactive)	6.73 µM (inactive)	1.97 µM (inactive)	2.91 µM (inactive)	21.4 µM (inactive)	8.18 µM (inactive)	2.19 µM (inactive)
O=C1N[C@@H](c2c[nH]c3cc(Br)ccc23)C(=O)N[C@H]1c1c[nH]c2cc(Br)ccc12	> 100 µM (inactive)	> 100 µM	> 100 µM (inactive)	> 100 µM (inactive)	> 100 µM (inactive)	83.9 µM (inactive)	> 100 µM (inactive)	> 100 µM (inactive)	> 100 µM (inactive)	> 100 µM (inactive)	> 100 µM (inactive)	29.9 µM (inactive)	> 100 µM (inactive)	47.4 µM (inactive)	> 100 µM (inactive)	> 100 µM (inactive)	> 100 µM (inactive)	9.4 µM (inactive)	> 100 µM (inactive)	> 100 µM (inactive)
COC(=O)[C@@H](NC(=O)c1ccc(CNC(=O)/C(C)=C/c2ccccc2)cc1)C(C)C	26.9 µM (inactive)	> 100 µM	> 100 µM (inactive)	> 100 µM (inactive)	> 100 µM (inactive)	36.1 µM (inactive)	66.5 µM (inactive)	> 100 µM (inactive)	27.4 µM (inactive)	56.8 µM (inactive)	> 100 µM (inactive)	> 100 µM (inactive)	79.6 µM (inactive)	> 100 µM (inactive)	40.8 µM (inactive)	51.1 µM (inactive)	> 100 µM (inactive)	> 100 µM (inactive)	> 100 µM (inactive)	56.2 µM (inactive)
O=C(/C=C/c1cccc2ccccc12)c1ccccc1	15.7 µM (inactive)	6.85 µM	19.8 µM (inactive)	4.57 µM (inactive)	7.45 µM (inactive)	4.71 µM (inactive)	5.71 µM (inactive)	13.7 µM (inactive)	9.16 µM (inactive)	12.9 µM (inactive)	13.8 µM (inactive)	8.45 µM (inactive)	10.9 µM (inactive)	16.5 µM (inactive)	17.7 µM (inactive)	14 µM (inactive)	14.5 µM (inactive)	15.9 µM (inactive)	4 µM (inactive)	11.7 µM (inactive)
CC(C)(C)CC(C)(C)c1ccc(O)c(C[N+](C)(C)[O-])c1	31.9 µM (inactive)	> 100 µM	> 100 µM (inactive)	73.6 µM (inactive)	> 100 µM (inactive)	> 100 µM (inactive)	> 100 µM (inactive)	> 100 µM (inactive)	58.5 µM (inactive)	63.5 µM (inactive)	> 100 µM (inactive)	> 100 µM (inactive)	> 100 µM (inactive)	85.5 µM (inactive)	> 100 µM (inactive)	> 100 µM (inactive)	> 100 µM (inactive)	91.2 µM (inactive)	> 100 µM (inactive)	68.2 µM (inactive)
CCCCCC(/C=N/N)C(O)(C(F)(F)F)C(F)(F)F (configuration not stated)	6.78 µM (inactive)	3.48 µM	4.78 µM (inactive)	3.59 µM (inactive)	7.18 µM (inactive)	4.44 µM (inactive)	3.55 µM (inactive)	3.58 µM (inactive)	2.04 µM (inactive)	5.35 µM (inactive)	4.19 µM (inactive)	3.48 µM (inactive)	7.28 µM (inactive)	1.87 µM (inactive)	2.64 µM (inactive)	3.37 µM (inactive)	4.08 µM (inactive)	3.29 µM (inactive)	2.53 µM (inactive)	7.08 µM (inactive)
CCc1cccc(C(C)C)c1NC(=O)C(=O)Nn1c(S)nc2ccccc2c1=O	> 100 µM (inactive)	> 100 µM	> 100 µM (inactive)	> 100 µM (inactive)	59.4 µM (inactive)	> 100 µM (inactive)	> 100 µM (inactive)	> 100 µM (inactive)	> 100 µM (inactive)	> 100 µM (inactive)	> 100 µM (inactive)	> 100 µM (inactive)	> 100 µM (inactive)	> 100 µM (inactive)	> 100 µM (inactive)	> 100 µM (inactive)	–	> 100 µM (inactive)	> 100 µM (inactive)	> 100 µM (inactive)
c1csc(-c2cc(-c3ccsc3)c(-c3cccs3)s2)c1	55.8 µM (inactive)	44.1 µM	> 100 µM (inactive)	43.6 µM (inactive)	–	31.8 µM (inactive)	32 µM (inactive)	58.7 µM (inactive)	> 100 µM (inactive)	> 100 µM (inactive)	> 100 µM (inactive)	> 100 µM (inactive)	49.8 µM (inactive)	> 100 µM (inactive)	41.3 µM (inactive)	–	> 100 µM (inactive)	17.9 µM (inactive)	74.3 µM (inactive)	2.7 µM (inactive)
CC(=O)CN/C(C)=N/Nc1ccc([N+](=O)[O-])cc1[N+](=O)[O-]	> 100 µM (inactive)	> 100 µM	> 100 µM (inactive)	> 100 µM (inactive)	> 100 µM (inactive)	–	> 100 µM (inactive)	> 100 µM (inactive)	> 100 µM (inactive)	> 100 µM (inactive)	> 100 µM (inactive)	> 100 µM (inactive)	> 100 µM (inactive)	> 100 µM (inactive)	> 100 µM (inactive)	> 100 µM (inactive)	> 100 µM (inactive)	> 100 µM (inactive)	> 100 µM (inactive)	> 100 µM (inactive)
C/C(=N\Nc1nc2ccccc2n1C)c1cc2ccccc2cn1	11.6 µM (inactive)	< 0.01 µM	0.153 µM (active)	< 0.0118 µM (active)	< 0.0128 µM (active)	< 0.025 µM (active)	0.176 µM (active)	< 0.0172 µM (active)	–	0.0423 µM (active)	–	< 0.0182 µM (active)	0.229 µM (active)	< 0.0294 µM (active)	0.213 µM (active)	0.805 µM (active)	0.352 µM (active)	1.14 µM (inactive)	< 0.0118 µM (active)	< 0.0447 µM (active)
C1=N\c2ccc(cc2)/N=C\c2ccccc2OCc2cccc(n2)COc2ccccc2/1	> 100 µM (inactive)	> 100 µM	30.1 µM (inactive)	> 100 µM (inactive)	75.2 µM (inactive)	> 100 µM (inactive)	> 100 µM (inactive)	> 100 µM (inactive)	> 100 µM (inactive)	> 100 µM (inactive)	> 100 µM (inactive)	> 100 µM (inactive)	5.19 µM (inactive)	–	–	> 100 µM (inactive)	21.1 µM (inactive)	–	> 100 µM (inactive)	> 100 µM (inactive)
CN(C)CC1COC2Cc3ccccc3C1O2 (configuration not stated)	> 100 µM (inactive)	> 100 µM	> 100 µM (inactive)	> 100 µM (inactive)	> 100 µM (inactive)	> 100 µM (inactive)	> 100 µM (inactive)	> 100 µM (inactive)	> 100 µM (inactive)	> 100 µM (inactive)	> 100 µM (inactive)	> 100 µM (inactive)	> 100 µM (inactive)	> 100 µM (inactive)	> 100 µM (inactive)	> 100 µM (inactive)	> 100 µM (inactive)	–	–	> 100 µM (inactive)

— ChEMBL document CHEMBL1201862, “PubChem BioAssay data set” (2004)
